18 compounds from ChEMBL document CHEMBL4011587, “Design, synthesis and evaluation of novel ferulic acid-O-alkylamine derivatives as potential multifunctional agents for the treatment of Alzheimer's disease” (Eur J Med Chem, 2017) can be followed below.

Where only a bound is given, the exact number is not on record here.

As a reminder, the IC50 is the concentration that gives 50% inhibition. Read a low IC50 as greater potency in that assay. As usually defined, the inhibition is the relative decrease from the control value, in per cent. High values mean strong suppression, low ones little suppression.

Assay [1] has as its target T1, Acetylcholinesterase (Electrophorus electricus, UniProt O42275). The assay is described as follows: Inhibition of electric eel AChE using acetylthiocholine chloride as substrate measured after 15 mins by Ellman's method. It counts as ADME.
A short description of assay [2]: Selectivity index, ratio of IC50 for electric eel AChE to IC50 for equine serum BuChE.
The target in another assay is Cholinesterase (Equus caballus, UniProt P81908). The assay is described as follows: Inhibition of equine serum BuChE using butyrylthiocholine chloride as substrate measured after 15 mins by Ellman's method.
In assay [3] the target is Amyloid-beta precursor protein (Homo sapiens) (UniProt P05067). The assay is described as follows: Inhibition of amyloid beta (1 to 42) (unknown origin) self-aggregation at 25 uM after 24 hrs by thioflavin-T fluorescence assay relative to control.
Assay [4] deals with T2, Acetylcholinesterase (Rattus norvegicus, UniProt P37136).
T2 sequence (P37136 whole entry): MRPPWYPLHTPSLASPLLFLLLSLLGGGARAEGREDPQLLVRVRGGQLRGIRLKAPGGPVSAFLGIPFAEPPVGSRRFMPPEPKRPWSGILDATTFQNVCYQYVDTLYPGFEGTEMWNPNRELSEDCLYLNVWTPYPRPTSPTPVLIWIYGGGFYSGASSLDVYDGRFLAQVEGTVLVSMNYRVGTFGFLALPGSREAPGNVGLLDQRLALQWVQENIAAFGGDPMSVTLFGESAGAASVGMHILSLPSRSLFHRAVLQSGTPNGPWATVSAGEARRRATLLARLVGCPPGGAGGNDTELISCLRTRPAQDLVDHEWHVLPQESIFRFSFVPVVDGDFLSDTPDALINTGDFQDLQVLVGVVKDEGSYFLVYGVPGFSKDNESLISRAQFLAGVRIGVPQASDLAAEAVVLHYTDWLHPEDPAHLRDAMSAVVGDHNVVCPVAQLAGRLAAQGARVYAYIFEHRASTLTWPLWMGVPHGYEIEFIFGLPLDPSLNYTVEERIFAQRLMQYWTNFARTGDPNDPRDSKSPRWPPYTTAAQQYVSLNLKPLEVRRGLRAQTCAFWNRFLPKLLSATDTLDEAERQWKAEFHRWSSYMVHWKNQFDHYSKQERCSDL
The assay is described as follows: Inhibition of AChE in rat cortex homogenates using acetylthiocholine chloride as substrate measured after 15 mins by Ellman's method. Type of assay: ADME.

Assay [5] can be described thus: Antioxidant activity assessed as inhibition of AAPH-induced peroxyl radical generation measured as trolox equivalent at 1 to 10 uM preincubated for 15 mins followed by AAPH addition measured every minute for 90 mins by ORAC-FL assay. It counts as functional.
The nature of assay [6]: Inhibition of BuChE in rat serum using butyrylthiocholine chloride as substrate measured after 15 mins by Ellman's method. The conditions noted are these: 0.25 h.
Assay [7] deals with T2, Acetylcholinesterase. Briefly: Inhibition of AChE in rat cortex homogenates at 25 umol/l using acetylthiocholine chloride as substrate measured after 15 mins by Ellman's method. The conditions noted are these: 0.25 h.
Assay [8] has as its target T1, Acetylcholinesterase. The assay is described as follows: Inhibition of electric eel AChE at 25 uM using acetylthiocholine chloride as substrate measured after 15 mins by Ellman's method relative to control. The conditions noted are these: 0.25 h.

T1 sequence (O42275 whole entry): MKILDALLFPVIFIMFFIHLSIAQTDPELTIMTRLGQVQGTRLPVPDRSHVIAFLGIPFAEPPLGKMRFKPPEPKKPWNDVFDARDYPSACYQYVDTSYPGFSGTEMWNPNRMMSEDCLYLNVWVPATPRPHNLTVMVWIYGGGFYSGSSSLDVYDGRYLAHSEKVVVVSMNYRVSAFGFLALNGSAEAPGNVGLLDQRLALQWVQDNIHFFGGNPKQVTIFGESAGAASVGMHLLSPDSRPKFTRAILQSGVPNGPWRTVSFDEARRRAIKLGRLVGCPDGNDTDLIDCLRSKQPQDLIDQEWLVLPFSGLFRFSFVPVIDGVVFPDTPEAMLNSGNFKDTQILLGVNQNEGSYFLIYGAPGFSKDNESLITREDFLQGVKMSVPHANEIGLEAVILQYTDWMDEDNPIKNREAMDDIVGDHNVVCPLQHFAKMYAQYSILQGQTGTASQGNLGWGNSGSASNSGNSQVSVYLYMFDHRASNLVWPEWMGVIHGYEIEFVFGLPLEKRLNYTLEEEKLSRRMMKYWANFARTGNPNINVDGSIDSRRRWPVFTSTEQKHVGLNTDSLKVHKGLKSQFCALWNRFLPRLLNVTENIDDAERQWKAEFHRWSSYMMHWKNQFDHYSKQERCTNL
Sequence of Cholinesterase (P81908 whole entry): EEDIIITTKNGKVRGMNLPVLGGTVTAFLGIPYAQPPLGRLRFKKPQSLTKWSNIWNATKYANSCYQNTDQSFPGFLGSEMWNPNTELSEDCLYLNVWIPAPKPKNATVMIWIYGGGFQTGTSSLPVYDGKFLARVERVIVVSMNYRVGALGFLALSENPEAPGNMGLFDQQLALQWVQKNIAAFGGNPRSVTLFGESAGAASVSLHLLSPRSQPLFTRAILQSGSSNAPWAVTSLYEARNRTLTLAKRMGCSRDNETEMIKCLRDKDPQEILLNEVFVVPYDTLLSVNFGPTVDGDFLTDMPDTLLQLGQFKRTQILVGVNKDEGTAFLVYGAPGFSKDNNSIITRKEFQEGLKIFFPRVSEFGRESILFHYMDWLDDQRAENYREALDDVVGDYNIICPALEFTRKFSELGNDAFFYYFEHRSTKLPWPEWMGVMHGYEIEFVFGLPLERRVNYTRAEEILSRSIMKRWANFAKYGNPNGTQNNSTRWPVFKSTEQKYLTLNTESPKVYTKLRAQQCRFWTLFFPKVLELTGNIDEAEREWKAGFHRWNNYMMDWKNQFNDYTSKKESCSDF
Sequence of Amyloid-beta precursor protein (Homo sapiens) (P05067 whole entry): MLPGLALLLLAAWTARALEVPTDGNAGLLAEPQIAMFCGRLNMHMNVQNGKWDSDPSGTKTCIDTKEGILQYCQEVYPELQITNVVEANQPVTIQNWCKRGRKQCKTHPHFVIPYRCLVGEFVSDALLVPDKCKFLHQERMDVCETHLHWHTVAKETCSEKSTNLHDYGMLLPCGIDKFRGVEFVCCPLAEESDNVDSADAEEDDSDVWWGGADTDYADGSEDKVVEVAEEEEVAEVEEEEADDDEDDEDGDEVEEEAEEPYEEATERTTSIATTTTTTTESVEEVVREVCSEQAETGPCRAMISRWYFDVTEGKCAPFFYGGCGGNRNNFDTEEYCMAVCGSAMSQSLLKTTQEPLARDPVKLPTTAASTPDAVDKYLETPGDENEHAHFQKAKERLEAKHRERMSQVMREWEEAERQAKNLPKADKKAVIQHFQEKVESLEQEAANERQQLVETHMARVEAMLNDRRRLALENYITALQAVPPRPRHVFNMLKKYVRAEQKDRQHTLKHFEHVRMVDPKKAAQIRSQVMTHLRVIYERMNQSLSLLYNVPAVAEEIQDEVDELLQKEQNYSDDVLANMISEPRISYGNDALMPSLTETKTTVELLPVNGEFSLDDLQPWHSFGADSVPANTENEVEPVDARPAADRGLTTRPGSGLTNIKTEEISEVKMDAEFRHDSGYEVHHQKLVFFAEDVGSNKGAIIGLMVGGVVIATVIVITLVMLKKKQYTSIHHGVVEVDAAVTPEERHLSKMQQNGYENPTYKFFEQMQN

In the case of `COc1cc(/C=C/C(=O)N2CCC(Cc3ccccc3)CC2)ccc1OCCCCN1CCN(Cc2ccccc2)CC1`, the IC50 came out at 2.53 µM at Acetylcholinesterase [1], 0.39 µM on Cholinesterase, 56 µM against Acetylcholinesterase [4] and 41.3 µM in assay [6]. Besides, the Ratio IC50 in assay [2] worked out at 6.5. This compound also showed an inhibition in assay [3] of 54.6%. Besides, the Activity in [5] came out at 0.67 equiv.

As for `COc1cc(/C=C/C(=O)N2CCC(Cc3ccccc3)CC2)ccc1OCCCCCCN1CCN(c2ncccn2)CC1`, the values for the 50% inhibitory concentration (IC50) (against Acetylcholinesterase [1]; at Cholinesterase; in [6]) were 13.4 µM, 0.68 µM and 68.6 µM, respectively. The same compound returned an inhibition at 25 µM against Acetylcholinesterase [7] of 15.2%. Further, the Ratio IC50 in assay [2] came out at 19.7. This compound also showed an inhibition in assay [3] of 42%. Also, the Activity in assay [5] was determined as 0.51 equiv.

In turn, `COc1cc(/C=C/C(=O)O)ccc1O` [FERULATE] showed an inhibition at 25 µM against Acetylcholinesterase [8] of under 5%. In assay [5], the Activity came to 1.1 equiv.

On Acetylcholinesterase [8], `COc1cc(/C=C/C(=O)N2CCC(Cc3ccccc3)CC2)ccc1O` showed an inhibition at 25 µM of under 5%. Also, inhibition against Cholinesterase was half-maximal at 5.7 µM (IC50). The compound also returned an inhibition in [3] of 65.9%. For the same compound, the Activity in assay [5] was 1.2 equiv.

Regarding `COc1cc(/C=C/C(=O)N2CCC(Cc3ccccc3)CC2)ccc1OCCCCCN1CCN(c2ncccn2)CC1`, the IC50 at Acetylcholinesterase [1] is 5.81 µM; at Cholinesterase, 2.34 µM; against Acetylcholinesterase [4] it was 30.6 µM; in assay [6], 45.3 µM. The Ratio IC50 in [2] was determined as 2.5. The compound also registered an inhibition in assay [3] of 39.7%. The Activity in assay [5] came to 0.46 equiv.

As for `COc1cc(/C=C/C(=O)N2CCC(Cc3ccccc3)CC2)ccc1OCCCN1CCN(c2ccccn2)CC1`, the IC50 on Acetylcholinesterase [1] stood at 10.4 µM; at Cholinesterase, 0.86 µM; on Acetylcholinesterase [4] it was 75.3 µM; in assay [6], 62.1 µM. Also, in [2], the Ratio IC50 was determined as 12.1. The compound also gave an inhibition in [3] of 36.3%. Besides, the Activity in assay [5] stood at 0.47 equiv.

`COc1cc(/C=C/C(=O)N2CCC(Cc3ccccc3)CC2)ccc1OCCCN1CCN(Cc2ccccc2)CC1`: the concentration for half-maximal inhibition (IC50) against Acetylcholinesterase [1] is 8.4 µM; against Cholinesterase it was 1.22 µM; against Acetylcholinesterase [4], 65 µM; in [6], 41.2 µM. For the same compound, in assay [2], the Ratio IC50 amounted to 6.9. Further, in [3], the inhibition was determined as 50.3%. In [5], the Activity amounted to 0.7 equiv.

The compound `COc1cc2c(cc1OC)C(=O)C(CC1CCN(Cc3ccccc3)CC1)C2` (configuration not stated) [DONEPEZIL] had an IC50 in assay [6] of 4.42 µM. This lies in the single-digit micromolar range.

For `COc1cc(/C=C/C(=O)N2CCC(Cc3ccccc3)CC2)ccc1OCCCCCCN1CCN(Cc2ccccc2)CC1`, the half-maximal inhibitory concentration (IC50) is 4.83 µM against Acetylcholinesterase [1], 2.2 µM against Cholinesterase, 73.2 µM against Acetylcholinesterase [4] and 50.6 µM in assay [6]. The Ratio IC50 in assay [2] is 2.2. For the same compound, in assay [3], the inhibition amounted to 51.1%. In assay [5], the Activity is 0.73 equiv.

As for `COc1cc(/C=C/C(=O)N2CCC(Cc3ccccc3)CC2)ccc1OCCCCCN1CCc2ccccc2C1`, the half-inhibitory concentration (IC50) against Acetylcholinesterase [1] was determined as 4.33 µM; against Cholinesterase it was 0.31 µM; against Acetylcholinesterase [4], 3.21 µM; in assay [6] it was 11.4 µM. Moreover, in [2], the Ratio IC50 came to 14. Also, the inhibition in assay [3] is 50.7%. In addition, in assay [5], the Activity was found to be 0.47 equiv.

As to `COc1cc(/C=C/C(=O)N2CCC(Cc3ccccc3)CC2)ccc1OCCCN1CCN(c2ncccn2)CC1`, the IC50 against Acetylcholinesterase [1] was 12.6 µM; at Cholinesterase it was 5.12 µM; against Acetylcholinesterase [4], 93.5 µM; in assay [6] it was 45.4 µM. The Ratio IC50 in assay [2] turned out to be 2.5. In assay [3], this compound registered an inhibition of 46.9%. The Activity in assay [5] is 0.41 equiv.

Consider `COc1cc(/C=C/C(=O)N2CCC(Cc3ccccc3)CC2)ccc1OCCCCCN1CCN(c2ccccn2)CC1`, for which the IC50 against Acetylcholinesterase [1] came to 9.12 µM; against Cholinesterase, 1.52 µM; on Acetylcholinesterase [4] it was 58.5 µM; in [6], 57.3 µM. Moreover, in assay [2], the Ratio IC50 is 6. Further, in assay [3], the inhibition amounted to 51.5%. Also, in assay [5], the Activity was found to be 0.45 equiv.

As for `COc1cc(/C=C/C(=O)N2CCC(Cc3ccccc3)CC2)ccc1OCCCCCN1CCN(Cc2ccccc2)CC1`, the half-inhibitory concentration (IC50) against Acetylcholinesterase [1] is 2.62 µM; against Cholinesterase, 2.23 µM; against Acetylcholinesterase [4], 79.8 µM; in assay [6], 61.5 µM. Besides, the Ratio IC50 in assay [2] was 1.2. This compound registered an inhibition in assay [3] of 55.9%. The Activity in [5] worked out at 0.66 equiv.

As for `COc1cc(/C=C/C(=O)N2CCC(Cc3ccccc3)CC2)ccc1OCCCCN1CCN(c2ccccn2)CC1`, the IC50 on Acetylcholinesterase [1] is 11.2 µM; against Cholinesterase, 1.62 µM; against Acetylcholinesterase [4], 67.2 µM; in assay [6], 48.6 µM. The Ratio IC50 in assay [2] turned out to be 6.9. Further, the inhibition in [3] was determined as 49.8%. Further, the Activity in [5] amounted to 0.4 equiv.

As for `COc1cc(/C=C/C(=O)N2CCC(Cc3ccccc3)CC2)ccc1OCCCN1CCc2ccccc2C1`, the half-inhibitory concentration (IC50) against Acetylcholinesterase [1] worked out at 2.21 µM; at Cholinesterase, 0.12 µM; against Acetylcholinesterase [4], 1.89 µM; in [6], 2.28 µM. For the same compound, the Ratio IC50 in assay [2] came to 18.4. Further, the inhibition in assay [3] was found to be 55.6%. In assay [5], the Activity was found to be 0.51 equiv.

As to `COc1cc(/C=C/C(=O)N2CCC(Cc3ccccc3)CC2)ccc1OCCCCN1CCN(c2ncccn2)CC1`, the IC50 at Acetylcholinesterase [1] was determined as 12.4 µM; against Cholinesterase, 1.56 µM; at Acetylcholinesterase [4] it was 44.3 µM; in assay [6], 56.2 µM. In assay [2], the Ratio IC50 amounted to 7.9. The compound also yielded an inhibition in [3] of 46%. Besides, the Activity in [5] was 0.43 equiv.

For `COc1cc(/C=C/C(=O)N2CCC(Cc3ccccc3)CC2)ccc1OCCCCCCN1CCc2ccccc2C1`, the IC50 against Acetylcholinesterase [1] was determined as 9.32 µM; against Cholinesterase, 0.88 µM; against Acetylcholinesterase [4] it was 21.5 µM; in assay [6], 3.47 µM. For the same compound, the Ratio IC50 in assay [2] stood at 10.6. Further, in assay [3], the inhibition stood at 54.7%. The Activity in [5] was determined as 0.49 equiv.

Consider `COc1cc(/C=C/C(=O)N2CCC(Cc3ccccc3)CC2)ccc1OCCCCCCN1CCN(c2ccccn2)CC1`, for which the IC50 against Acetylcholinesterase [1] is 15.6 µM; at Cholinesterase it was 0.95 µM; in [6], 6.9 µM. Also, at Acetylcholinesterase [7], 25 µM produced 18.5% inhibition. In addition, the Ratio IC50 in assay [2] turned out to be 16.4. The inhibition in assay [3] was 49.9%. Moreover, the Activity in [5] was found to be 0.38 equiv.
